Results: PubChem BioAssay (NCI)
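Protocol summary: plate cells (96-well), add compound at 5 concentrations, incubate 48 h, interpolate endpoints linearly. GI50 = concentration required for 50% inhibition of growth. At the TGI there is no net growth.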

Legend:
Experiment in all cases: DTP human tumour cell line panel, 48 h; in the data active means GI50 below about 0.43 µM; inactive means the rest
OVCAR-3 ovarian = system: OVCAR-3 ovarian
SNB-75 CNS = system: SNB-75 CNS
KM20L2 colon = system: KM20L2 colon
COLO 205 colon = system: COLO 205 colon
CCRF-CEM leukemia = system: CCRF-CEM leukemia
HCT-15 colon = system: HCT-15 colon
SK-MEL-2 melanoma = system: SK-MEL-2 melanoma
SNB-78 CNS = system: SNB-78 CNS
MDA-MB-231 breast = system: MDA-MB-231 breast
SNB-19 CNS = system: SNB-19 CNS
HL-60(TB) leukemia = system: HL-60(TB) leukemia
MDA-N = system: MDA-N
786-0 renal = system: 786-0 renal
LXFL 529 NSCLC = system: LXFL 529 NSCLC
HOP-62 NSCLC = system: HOP-62 NSCLC
A498 renal = system: A498 renal
KM12 colon = system: KM12 colon
SK-MEL-5 melanoma = system: SK-MEL-5 melanoma
K-562 leukemia = system: K-562 leukemia
SF-295 CNS = system: SF-295 CNS
SF-539 CNS = system: SF-539 CNS
XF 498 CNS = system: XF 498 CNS
LOX IMVI melanoma = system: LOX IMVI melanoma
HT29 colon = system: HT29 colon
M14 melanoma = system: M14 melanoma
HS 578T breast = system: HS 578T breast
DMS 273 small cell lung = system: DMS 273 small cell lung
UACC-62 melanoma = system: UACC-62 melanoma
IGROV1 ovarian = system: IGROV1 ovarian
HOP-18 NSCLC = system: HOP-18 NSCLC
HCT-116 colon = system: HCT-116 colon
NCI-H460 lung = system: NCI-H460 lung
SF-268 CNS = system: SF-268 CNS
UO-31 renal = system: UO-31 renal
U251 CNS = system: U251 CNS
NCI-H23 lung = system: NCI-H23 lung
OVCAR-4 ovarian = system: OVCAR-4 ovarian
M19-MEL melanoma = system: M19-MEL melanoma
RXF 393 renal = system: RXF 393 renal
UACC-257 melanoma = system: UACC-257 melanoma
RPMI-8226 leukemia = system: RPMI-8226 leukemia
HCC-2998 colon = system: HCC-2998 colon
SR leukemia = system: SR leukemia
ACHN renal = system: ACHN renal
NCI-H522 lung = system: NCI-H522 lung
A549 NSCLC = system: A549 NSCLC
OVCAR-8 ovarian = system: OVCAR-8 ovarian
MOLT-4 leukemia = system: MOLT-4 leukemia
SK-OV-3 ovarian = system: SK-OV-3 ovarian
RXF-631 renal = system: RXF-631 renal
OVCAR-5 ovarian = system: OVCAR-5 ovarian
EKVX NSCLC = system: EKVX NSCLC
SN12C renal = system: SN12C renal
HOP-92 NSCLC = system: HOP-92 NSCLC
SW-620 colon = system: SW-620 colon
SK-MEL-28 melanoma = system: SK-MEL-28 melanoma
MALME-3M melanoma = system: MALME-3M melanoma
PC-3 prostate = system: PC-3 prostate
TK-10 renal = system: TK-10 renal
DMS 114 small cell lung = system: DMS 114 small cell lung
NCI-H226 lung = system: NCI-H226 lung
CAKI-1 renal = system: CAKI-1 renal
MCF7 breast = system: MCF7 breast
BT-549 breast = system: BT-549 breast
DLD-1 colon = system: DLD-1 colon

CC1CCC2C(C)C(=O)OC3OC4(C)CCC1C32OO4 (stereo not drawn)
inactive: GI50 (COLO 205 colon) > 100 µM | GI50 (SNB-19 CNS) > 100 µM | GI50 (MDA-N) > 100 µM | GI50 (786-0 renal) > 100 µM | GI50 (HOP-62 NSCLC) > 100 µM | GI50 (A498 renal) > 100 µM | GI50 (KM12 colon) > 100 µM | GI50 (HT29 colon) > 100 µM | GI50 (HS 578T breast) > 100 µM | GI50 (UACC-62 melanoma) > 100 µM | GI50 (NCI-H460 lung) > 100 µM | GI50 (U251 CNS) > 100 µM | GI50 (NCI-H23 lung) > 100 µM | GI50 (UACC-257 melanoma) > 100 µM | GI50 (SR leukemia) > 100 µM | GI50 (ACHN renal) > 100 µM | GI50 (OVCAR-8 ovarian) > 100 µM | GI50 (OVCAR-5 ovarian) > 100 µM | GI50 (HOP-92 NSCLC) > 100 µM | GI50 (SW-620 colon) > 100 µM | GI50 (SK-MEL-28 melanoma) > 100 µM | GI50 (TK-10 renal) > 100 µM | GI50 (NCI-H226 lung) > 100 µM | GI50 (MCF7 breast) > 100 µM
> 92.6 µM: TGI (NCI-H522 lung)
> 100 µM: TGI (OVCAR-3 ovarian) | TGI (KM20L2 colon) | TGI (COLO 205 colon) | TGI (CCRF-CEM leukemia) | TGI (HCT-15 colon) | TGI (SK-MEL-2 melanoma) | TGI (SNB-78 CNS) | TGI (MDA-MB-231 breast) | TGI (SNB-19 CNS) | TGI (HL-60(TB) leukemia) | TGI (MDA-N) | TGI (786-0 renal) | TGI (LXFL 529 NSCLC) | TGI (HOP-62 NSCLC) | TGI (A498 renal) | TGI (KM12 colon) | TGI (SK-MEL-5 melanoma) | TGI (K-562 leukemia) | TGI (SF-295 CNS) | TGI (SF-539 CNS) | TGI (XF 498 CNS) | TGI (LOX IMVI melanoma) | TGI (HT29 colon) | TGI (M14 melanoma) | TGI (HS 578T breast) | TGI (DMS 273 small cell lung) | TGI (UACC-62 melanoma) | TGI (IGROV1 ovarian) | TGI (HOP-18 NSCLC) | TGI (HCT-116 colon) | TGI (NCI-H460 lung) | TGI (SF-268 CNS) | TGI (UO-31 renal) | TGI (U251 CNS) | TGI (NCI-H23 lung) | TGI (OVCAR-4 ovarian) | TGI (M19-MEL melanoma) | TGI (RXF 393 renal) | TGI (UACC-257 melanoma) | TGI (RPMI-8226 leukemia) | TGI (HCC-2998 colon) | TGI (SR leukemia) | TGI (ACHN renal) | TGI (A549 NSCLC) | TGI (OVCAR-8 ovarian) | TGI (MOLT-4 leukemia) | TGI (SK-OV-3 ovarian) | TGI (RXF-631 renal) | TGI (OVCAR-5 ovarian) | TGI (EKVX NSCLC) | TGI (SN12C renal) | TGI (HOP-92 NSCLC) | TGI (SW-620 colon) | TGI (SK-MEL-28 melanoma) | TGI (MALME-3M melanoma) | TGI (PC-3 prostate) | TGI (TK-10 renal) | TGI (DMS 114 small cell lung) | TGI (NCI-H226 lung) | TGI (CAKI-1 renal) | TGI (MCF7 breast) | TGI (BT-549 breast)
> 97.2 µM: TGI (SNB-75 CNS)

O=C(CCC(=O)Nc1ccc(Cl)c(Cl)c1)CC(=O)c1ccc2ccccc2c1
> 100 µM: TGI (OVCAR-3 ovarian) | TGI (SNB-75 CNS) | TGI (KM20L2 colon) | TGI (CCRF-CEM leukemia) | TGI (HCT-15 colon) | TGI (SK-MEL-2 melanoma) | TGI (SNB-78 CNS) | TGI (SNB-19 CNS) | TGI (HL-60(TB) leukemia) | TGI (786-0 renal) | TGI (LXFL 529 NSCLC) | TGI (HOP-62 NSCLC) | TGI (A498 renal) | TGI (KM12 colon) | TGI (SK-MEL-5 melanoma) | TGI (K-562 leukemia) | TGI (SF-295 CNS) | TGI (SF-539 CNS) | TGI (LOX IMVI melanoma) | TGI (HT29 colon) | TGI (M14 melanoma) | TGI (DLD-1 colon) | TGI (DMS 273 small cell lung) | TGI (UACC-62 melanoma) | TGI (IGROV1 ovarian) | TGI (HOP-18 NSCLC) | TGI (HCT-116 colon) | TGI (NCI-H460 lung) | TGI (SF-268 CNS) | TGI (UO-31 renal) | TGI (U251 CNS) | TGI (NCI-H23 lung) | TGI (OVCAR-4 ovarian) | TGI (M19-MEL melanoma) | TGI (RXF 393 renal) | TGI (UACC-257 melanoma) | TGI (RPMI-8226 leukemia) | TGI (HCC-2998 colon) | TGI (ACHN renal) | TGI (NCI-H522 lung) | TGI (A549 NSCLC) | TGI (OVCAR-8 ovarian) | TGI (MOLT-4 leukemia) | TGI (RXF-631 renal) | TGI (OVCAR-5 ovarian) | TGI (EKVX NSCLC) | TGI (SN12C renal) | TGI (HOP-92 NSCLC) | TGI (SW-620 colon) | TGI (SK-MEL-28 melanoma) | TGI (MALME-3M melanoma) | TGI (TK-10 renal) | TGI (DMS 114 small cell lung) | TGI (NCI-H226 lung) | TGI (CAKI-1 renal)

CCOC(=O)c1nc2ccc(OC)cc2c2c1Cc1ccccc1-2
> 100 µM: TGI (OVCAR-3 ovarian) | TGI (SNB-75 CNS) | TGI (KM20L2 colon) | TGI (COLO 205 colon) | TGI (HCT-15 colon) | TGI (SK-MEL-2 melanoma) | TGI (SNB-78 CNS) | TGI (SNB-19 CNS) | TGI (LXFL 529 NSCLC) | TGI (HOP-62 NSCLC) | TGI (KM12 colon) | TGI (SK-MEL-5 melanoma) | TGI (K-562 leukemia) | TGI (SF-295 CNS) | TGI (SF-539 CNS) | TGI (LOX IMVI melanoma) | TGI (HT29 colon) | TGI (M14 melanoma) | TGI (DLD-1 colon) | TGI (DMS 273 small cell lung) | TGI (UACC-62 melanoma) | TGI (IGROV1 ovarian) | TGI (HCT-116 colon) | TGI (NCI-H460 lung) | TGI (SF-268 CNS) | TGI (UO-31 renal) | TGI (U251 CNS) | TGI (NCI-H23 lung) | TGI (OVCAR-4 ovarian) | TGI (M19-MEL melanoma) | TGI (UACC-257 melanoma) | TGI (RPMI-8226 leukemia) | TGI (HCC-2998 colon) | TGI (SR leukemia) | TGI (ACHN renal) | TGI (NCI-H522 lung) | TGI (A549 NSCLC) | TGI (OVCAR-8 ovarian) | TGI (MOLT-4 leukemia) | TGI (RXF-631 renal) | TGI (OVCAR-5 ovarian) | TGI (SN12C renal) | TGI (SW-620 colon) | TGI (SK-MEL-28 melanoma) | TGI (MALME-3M melanoma) | TGI (TK-10 renal) | TGI (DMS 114 small cell lung) | TGI (NCI-H226 lung) | TGI (CAKI-1 renal)
71.6 µM: TGI (RXF 393 renal)
